Reference: patent US8609870B2, “Treating various disorders using TrkB agonists” (Emory University, priority 2008, dated 2013)

How the values were obtained:
mice = assay: Forced swim test; assay type: in vivo, mouse
Protocol: To explore whether an identified active compound has an antidepressant effect like BDNF, a forced swim test is conducted. Adult male mice (2-3 months old) are randomly submitted, without a pre-swim, to a forced swim test of 6 minutes with immobility recorded in the last 4 minutes. The mice are injected intraperitoneally for 5 days with saline, imipramine (20 mg/kg), amitryptyline (15 mg/kg), or an identified active compound (5 mg/kg). The mice are allowed to adapt to the test room for 2 days, and the mice are placed in a clear glass cylinder with a diameter of 16 cm, half-filled with clear water at 24° C.
To investigate whether deoxygedunin mimicked BDNF in suppressing depression-like symptoms, a forced swim test after subchronic treatment of the mice for 5 days with various drugs was conducted. […] To assess whether the behavior responses by 7,8-DHF and deoxygedunin were mediated by TrkB receptor, TrkB F616A knockin mice were used. The transgenic mice were subjected to saline or 1NMPP1 treatment, respectively.

TrkB F616A knockin mice = assay: KA-provoked apoptosis (caspase-3) in TrkB F616A knockin mice; assay type: in vivo, mouse
Protocol: To determine if 1NMPP1 makes neurons treated with an identified active compound vulnerable to KA-provoked neuronal cell death, TrkF616A knockin mice are fed with 1NMPP1 (25 mM) in drinking water one day prior to pharmacological reagent treatment. The next day, the mice are intraperitoneally injected with KA (25 mg/kg), or an identified active compound (5 mg/kg) 4 hours prior to KA injection. The control mice are injected with either KA or an identified active compound alone, or the mice are administered an identified active compound 4 hours before KA. After 4 days, the mice are sacrificed and the brains are homogenized and ultracentrifuged. The supernatant then is employed for SDS-PAGE and immunoblotting analysis.
(§1) […] inversely correlated with TrkB activation by deoxygedunin (FIG. 20, top and middle panels).

TrkB F616A = biological target: T1, TrkB F616A (Mus musculus, UniProt P15209, F616A); assay: TrkB phosphorylation in cortical neurons from TrkB F616A knockin mice; assay type: cell-based; details: inhibitor pretreatment
T1 construct: cortical neurons from TrkB F616A knockin mice; endogenous in cells; host or cells: primary cortical neurons from TrkB F616A knock-in mice
T1 sequence (P15209 32-821 F616A): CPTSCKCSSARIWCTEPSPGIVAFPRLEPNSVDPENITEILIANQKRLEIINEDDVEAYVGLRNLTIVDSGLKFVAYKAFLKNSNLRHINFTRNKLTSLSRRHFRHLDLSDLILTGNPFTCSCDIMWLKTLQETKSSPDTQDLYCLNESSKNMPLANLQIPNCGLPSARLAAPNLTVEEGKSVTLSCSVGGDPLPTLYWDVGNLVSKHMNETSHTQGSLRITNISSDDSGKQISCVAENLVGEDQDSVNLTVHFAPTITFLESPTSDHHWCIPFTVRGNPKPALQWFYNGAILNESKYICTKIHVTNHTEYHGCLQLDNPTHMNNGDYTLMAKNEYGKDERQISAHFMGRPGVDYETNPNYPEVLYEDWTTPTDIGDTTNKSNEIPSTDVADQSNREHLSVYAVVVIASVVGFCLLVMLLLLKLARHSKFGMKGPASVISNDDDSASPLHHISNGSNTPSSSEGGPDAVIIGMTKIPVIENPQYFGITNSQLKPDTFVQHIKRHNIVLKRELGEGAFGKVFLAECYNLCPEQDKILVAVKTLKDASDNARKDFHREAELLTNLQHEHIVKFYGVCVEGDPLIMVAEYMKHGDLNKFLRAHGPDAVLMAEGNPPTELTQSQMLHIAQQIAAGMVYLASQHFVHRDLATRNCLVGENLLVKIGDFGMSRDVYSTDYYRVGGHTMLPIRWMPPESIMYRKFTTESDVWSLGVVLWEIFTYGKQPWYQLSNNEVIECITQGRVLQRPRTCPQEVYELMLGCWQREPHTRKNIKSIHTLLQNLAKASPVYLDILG
Protocol: (§2) To explore whether the neuroprotective action of an identified active compound is dependent on TrkB activation in vivo, TrkB F616A knockin mice are used. […] To further assess whether an identified active compound can mimic BDNF, cortical neurons are prepared from TrkB F616A knockin mice. The cortical neurons are pretreated for 30 minutes with either K252a Trk tyrosine kinase inhibitor (100 nM) or 1NMPP1 inhibitor (100 nM) followed by 0.5 μM identified active compound for 30 minutes.
as §1

Akt and Erk1/2 = Akt and Erk1/2 activation in cortical neurons from TrkB F616A knockin mice; assay type: cell-based, mouse
Protocol: as §2, §1

TrkB [1] = assay: TrkB activation in cortical neurons from knockout mouse pups; assay type: cell-based; details: wild-type cortical neurons (pups of TrkB +/− mice)
Protocol: (§3) To determine whether an identified active compound selectively activates TrkB receptor and prevents neuronal cell death, cortical neurons are prepared from homozygous pups of TrkB +/− mice, which are mated to the same genotype. The activation of TrkB and down stream indicators of TrkB activation, such as Capase-3, are monitored. To further assess whether an identified active compound blocks neuronal apoptosis in a TrkB dependent manner, cortical neurons are prepared from homozygous pups of […], which are mated to the same genotype. Again, the activation of TrkB and down stream indicators of TrkB activation, such as Capase-3, are monitored.
(§4) Additionally, the spontaneous caspase-3 activation in […] was suppressed by deoxygedunin.

TrkA = TrkA (Mus musculus, UniProt Q3UFB7); assay: TrkA activation in cortical neurons from knockout mouse pups; assay type: cell-based; parameters: endogenous in cells; host or cells: primary cortical neurons from mouse pups; details: cortical neurons (pups of TrkB +/− mice)
Sequence of TrkA (Q3UFB7 34-799): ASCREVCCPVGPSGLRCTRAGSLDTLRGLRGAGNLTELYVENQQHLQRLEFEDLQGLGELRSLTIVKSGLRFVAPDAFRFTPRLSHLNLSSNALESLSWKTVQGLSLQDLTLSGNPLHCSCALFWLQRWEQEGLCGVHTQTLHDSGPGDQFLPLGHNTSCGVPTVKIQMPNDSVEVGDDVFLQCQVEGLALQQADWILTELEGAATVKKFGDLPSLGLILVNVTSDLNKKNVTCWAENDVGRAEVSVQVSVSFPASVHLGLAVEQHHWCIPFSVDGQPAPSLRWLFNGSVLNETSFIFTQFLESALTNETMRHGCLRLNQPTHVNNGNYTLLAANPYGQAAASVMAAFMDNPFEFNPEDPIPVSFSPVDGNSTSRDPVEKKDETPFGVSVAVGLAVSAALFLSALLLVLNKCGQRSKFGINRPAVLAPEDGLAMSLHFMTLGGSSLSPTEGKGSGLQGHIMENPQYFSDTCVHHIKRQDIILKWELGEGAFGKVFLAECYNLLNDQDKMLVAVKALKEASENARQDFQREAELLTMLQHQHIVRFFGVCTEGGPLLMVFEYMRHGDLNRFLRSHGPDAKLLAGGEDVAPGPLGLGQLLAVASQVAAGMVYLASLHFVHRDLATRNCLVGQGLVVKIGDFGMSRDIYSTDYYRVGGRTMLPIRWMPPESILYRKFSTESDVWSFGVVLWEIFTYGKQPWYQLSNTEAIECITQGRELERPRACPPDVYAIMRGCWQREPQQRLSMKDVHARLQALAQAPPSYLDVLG

caspase-3 = assay: Caspase-3 activation in cortical neurons from knockout mouse pups; assay type: cell-based
Protocol: as §3, §4

Erk1/2 and Akt = Erk1/2 and Akt activation in hippocampal neurons (Western blot); assay type: cell-based; details: K252a pretreatment of hippocampal neurons
Protocol: BDNF binding to TrkB induces its autophosphorylation and, subsequently, activation of downstream kinase pathways including MAPK and PI3/Akt. To explore whether an identified active compound triggers TrkB activation, immunofluorescent staining on hippocampal neurons with anti-phospho TrkB antibody is conducted. To examine whether an identified active compound stimulates TrkB-mediated downstream signaling cascades, Western analysis is performed and the activation of Akt and Erk also is monitored. To test whether the stimulatory effect of an identified active compound is mediated through TrkB, cells are either untreated or treated with K252a, a selective inhibitor of the tyrosine kinase activity of the Trk family of neutrophin receptors. Cells treated with K252a block TrkB tyrosine phosphorylation in cells exposed to an identified active compound. To probe the time course of TrkB activation triggered by an identified active compound, hippocampal neurons are treated with an identified active compound at 500 nM and phosphorylation of Erk and Akt is determined over time by Western analysis. Whether stimulation of Erk and Akt by an identified active compound occurs in a dose dependent manner also is determined.
Both Akt and Erk1/2 were robustly activated by these molecules as well). […] The minimal required drug concentration was about 100-250 nM (see FIG. 7, right panels). […] To assess whether deoxygedunin provokes TrkB activation in the brain, mice (i.p.) were injected with a dose of 5 mg/kg for various time points. […] To establish that deoxygedunin is orally bioactive in provoking TrkB activation, two to three month old C57BL/6J mice were orally injected with various doses of 7,8-dihydroxyflavone or deoxygedunin then sacrificed 2 to 4 hours after administration. Brain lysates were prepared and analyzed by immunoblotting (see FIG. 10).

TrkB [2] = assay: TrkB phosphorylation in hippocampal neurons (immunofluorescent staining, immunoblotting); assay type: cell-based; details: K252a pretreatment of hippocampal neurons
Protocol: Unless specifically described, primary hippocampal neurons are seeded on poly-L lysine coated coverslips in a 12-well plate. After 7 days in vitro, the neurons are treated with 100 ng/ml BDNF or variety of flavone compounds (1 μM) for 30 minutes, and then are washed with PBS. Cells are fixed with 3% formaldehyde in PBS at room temperature for 10 minutes. The cells then are permeabilized and blocked by 0.4% Triton X-100 and 2% FBS in PBS at room temperature for 15 minutes, are washed with PBS three times, and are treated with anti-MAP2 (1:200) and anti-phospho-TrkB antibodies (1:500). After staining with FITC- or Rhodamine-conjugated secondary antibody, the coverslips are mounted on slides. Fluorescent images are taken by a fluorescence microscope.
BDNF binding to TrkB induces its autophosphorylation and, subsequently, activation of downstream kinase pathways including MAPK and PI3/Akt. […] To examine whether an identified active compound stimulates TrkB-mediated downstream signaling cascades, Western analysis is performed and the activation of Akt and Erk also is monitored. […] To probe the time course of TrkB activation triggered by an identified active compound, hippocampal neurons are treated with an identified active compound at 500 nM and phosphorylation of Erk and Akt is determined over time by Western analysis. […]

hippocampal neurons [3] = assay: Glutamate-triggered apoptosis in hippocampal neurons (MR(DEVD)2 / condensed nuclei); assay type: cell-based; details: 0.5 μM preincubated 30 min, then 50 μM glutamate 16 h
Protocol: To create and test reporter cell lines. In order to identify small molecules that mimic BDNF and activate TrkB, TrkB stably transfected murine cell lines are created. The T48 and T62 cell lines are created by transfecting basal forebrain SN56 cells, which express negligible TrkB, with a TrkB expression construct. To test expression of TrkB, the cells are treated with BDNF, which is predicted to result in strong phosphorylation of Trk-490 and Akt activation in comparison to the TrkA NTR stably expressing T17 cell line indicating expression of TrkB. To test resistance to apoptosis, the SN56 cells and the T48 cell line are either untreated or treated with BDNF, and then are subjected to an apoptotic assay. The apoptotic assay involves treating the cells with 0.75 μM Staurosporine for 9 hours, and 1 hour before completing the experiment, the cells are treated with 10 μM MR (DEVD)2. The cells then are fixed with 4% paraformaldehyde for 15 minutes, washed with phosphate buffered saline (PBS), and incubated with Hoechst 33342 for 10 minutes. Cover slides are washed with PBS, mounted, and then the cells are examined using a fluorescent microscope to see which cells turn red upon caspase cleavage.
To compare the apoptosis inhibitory activity of identified active compounds, the compounds are preincubated with SN56 and T48 cells, and subsequently are subjected to the fluorescent apoptotic assay as described above. To examine whether these identified active compounds promote neuronal survival, hippocampal neurons are prepared and the cultures are pretreated with the identified active compounds for 30 minutes, followed by treatment with 50 μM glutamate for 16 hours.
Using a cell-based screen as described above in Example 1 (based on the anti-apoptotic action of TrkB signaling) and the chemical library from the Spectrum Collection (described above), 66 positive hits were generated, four of which were gedunin derivatives. […] In this assay, neurons with both cleaved caspase (MR (DEVD)2 red cells) and condensed nuclei (DAPI staining) were counted as apoptotic cells. […]

hippocampal neurons [4] = assay: Oxygen-glucose deprivation (OGD) apoptosis in hippocampal neurons; assay type: cell-based; details: apoptotic ratio compared to BDNF and DMSO

Row | Structure (SMILES) | blockade of BDNF-provoked TrkB phosphorylation (TrkB F616A) | blockade of deoxygedunin provoked TrkB phosphorylation (TrkB F616A) | blockade of BDNF-triggered Akt and Erk1/2 activation (Akt and Erk1/2) | TrkB activation (TrkB [1]) | TrkA activation (TrkA) | blockade of glutamate-provoked caspase-3 activation (caspase-3; TrkB −/− cortical neurons) | blockade of glutamate-provoked caspase-3 activation (caspase-3; wild-type cortical neurons) | also measured
1 | CC(C)(C)n1nc(Cc2cccc3ccccc23)c2c(N)ncnc21 [1NMPP1] | selectively blocked | selectively blocked | blocked BDNF-triggered Akt and Erk1/2 activation | – | – | – | – | immobility time, 1NMPP1-treated versus saline (mice; TrkB F616A knockin mice, no test drug): No significant difference; effect of 1NMPP1 pretreatment on deoxygedunin's protective effect (TrkB F616A knockin mice; F616A mice, KA): diminished deoxygedunin's protective effect; effect of 1NMPP1 pretreatment on KA-provoked apoptosis (TrkB F616A knockin mice; TrkB F616A mice): elevated KA-provoked apoptosis; effect on Akt and Erk1/2 activation by deoxygedunin (Akt and Erk1/2): diminished Akt and Erk1/2 activation
2 | O=c1cc(-c2ccccc2)oc2c(O)c(O)ccc12 [7,8-dihydroxyflavone] | – | – | – | selectively activated TrkB | not TrkA | not TrkB −/− neurons | substantially blocked | –
3 | COC(=O)[C@@]1(O)C[C@H]2O[C@]1(C)n1c3ccccc3c3c4c(c5c6ccccc6n2c5c31)C(=O)NC4 [K252a] | not K252a | not K252a | not K252a | – | – | – | – | blockade of deoxygedunin-provoked downstream Akt and MAPK signalings (Erk1/2 and Akt): blocked; blockade of deoxygedunin-triggered TrkB activation (TrkB [2]): substantially blocked
4 | CN(C)CCC=C1c2ccccc2CCc2ccccc21 [amitriptyline] | – | – | – | activated both TrkA and TrkB | activated both TrkA and TrkB | weakly suppressed caspase-3 activation | weakly suppressed caspase-3 activation | –
5 | CC(=O)O[C@@H]1CC2C(C)(C)C(=O)CC[C@]2(C)C2CC[C@]3(C)C(=CC(=O)O[C@H]3c3ccoc3)[C@@]21C (some centres unmarked) [dihydrodeoxygedunin] | – | – | – | – | – | – | – | protective effect (apoptosis inhibitory activity) (hippocampal neurons [3]): protective effect; protective effects on hippocampal neurons under OGD (hippocampal neurons [4]): potent protective effects
6 | CN(C)CCCN1c2ccccc2CCc2ccccc21 [imipramine, reference compound] | – | – | – | not imipramine | not imipramine | – | failed to block caspase-3 activation | swimming immobility (mice; mice, subchronic treatment 5 days, imipramine 20 mg/kg, deoxygedunin 5 mg/kg): significantly decreased
